{"source": "patent US11020409B2", "about": "“Broad antiviral therapy with membrane modifying oxysterols” (priority 2012, dated 2021)", "key": {"VSV-GFP [1]": {"system": "VSV-GFP", "assay": "microbe, parasite or virus in culture", "format": "cell-based, vesicular stomatitis virus"}, "HIV NL4-3": {"system": "HIV NL4-3", "format": "cell-based, human-immunodeficiency virus"}, "[2]": {"system": "RVFV (MP12 vaccine strain)", "format": "cell-based, Rift Valley Fever Virus"}, "NL4-3-GFP": {"system": "NL4-3-GFP", "format": "cell-based, human-immunodeficiency virus"}, "[3]": {"system": "Russian Spring-Summer Encephalitis Virus (RSSEV)", "format": "cell-based"}, "[4]": {"system": "Rift Valley Fever Virus ZH501 (RVFV)", "format": "cell-based"}, "[5]": {"system": "Nipah virus (Bangladesh strain)", "format": "cell-based"}, "VSV": {"system": "VSV", "format": "cell-based, vesicular stomatitis virus"}, "[6]": {"system": "Nipah fusion (F) and attachment (G) proteins", "format": "cell-based, Nipah virus"}, "pseudotyped HIV-IIIB": {"system": "pseudotyped HIV-IIIB", "format": "cell-based, human-immunodeficiency virus"}, "adenovirus-GFP": {"system": "adenovirus-GFP", "format": "cell-based"}, "HIV-IIIB pseudovirus": {"system": "HIV-IIIB pseudovirus", "format": "cell-based, human-immunodeficiency virus"}, "[7]": {"system": "replication-competent VSV", "format": "cell-based, vesicular stomatitis virus"}, "VSVΔG-Luc/G pseudovirus": {"system": "VSVΔG-Luc/G pseudovirus", "format": "cell-based, vesicular stomatitis virus"}, "HIV NL4-R3A": {"system": "HIV NL4-R3A", "assay": "HIV infection in DKO-hu humanized mice", "format": "in vivo, HIV-1"}, "VSV-G/BlaM": {"system": "VSV-G/BlaM", "format": "cell-based, vesicular stomatitis virus"}, "Ebola Zaire-GFP (EBOV)": {"system": "Ebola Zaire-GFP (EBOV)", "format": "cell-based, Ebola virus"}, "[8]": {"system": "HIV NL4-3 encoding Vpr-BlaM (NL4-3/BlaM)", "format": "cell-based, human-immunodeficiency virus"}, "VSV-GFP [9]": {"system": "VSV-GFP", "format": "cell-based, vesicular stomatitis virus"}}, "note": "Several values for one entry are separate records, joined by “and”; a condition that tells them apart may be missing. Identical values can stand only once. Like-named read-outs stand apart in the source and are kept apart here.", "data": [{"smiles": "CC(C)CC[C@@H](O)[C@@H](C)[C@H]1CC[C@H]2[C@@H]3CC=C4C[C@@H](O)CC[C@]4(C)[C@H]3CC[C@]12C", "note": "[22R-HC, 22-(R)-hydroxycholesterol, reference compound]", "values": [{"measurement": "antiviral effect on VSV-GFP", "setting": "VSV-GFP [1]", "value": "did not confer antiviral effect"}]}, {"smiles": "CC(C)CC[C@H](O)[C@@H](C)[C@H]1CC[C@H]2[C@@H]3CC=C4C[C@@H](O)CC[C@]4(C)[C@H]3CC[C@]12C", "note": "[22S-HC, 22-(S)-hydroxycholesterol, reference compound]", "values": [{"measurement": "effect on HIV p24 expression", "setting": "HIV NL4-3", "value": "no effect"}]}, {"smiles": "C[C@H](CCCC(C)(C)O)[C@H]1CC[C@H]2[C@@H]3CC=C4C[C@@H](O)CC[C@]4(C)[C@H]3CC[C@]12C", "note": "[25HC, 25-hydroxycholesterol]", "values": [{"measurement": "replication of RVFV (MP12), dose dependence", "setting": "[2]", "value": "dose-dependent manner"}, {"measurement": "GFP expression from NL4-3-GFP (HIV transcription and translation)", "setting": "NL4-3-GFP", "value": "did not suppress GFP expression"}, {"measurement": "HIV p24 expression in supernatants of transfected cells (budding)", "setting": "NL4-3-GFP", "value": "did not affect"}, {"measurement": "replication of live RSSEV", "setting": "[3]", "value": "inhibited replication"}, {"measurement": "replication of live RVFV", "setting": "[4]", "value": "inhibited replication"}, {"measurement": "replication of Nipah, dose dependence", "setting": "[5]", "value": "dose-dependent manner"}, {"measurement": "replication of live Nipah (Bangladesh)", "setting": "[5]", "value": "inhibited replication"}, {"measurement": "VSV binding (VSV genomic RNA)", "setting": "VSV", "value": "did not inhibit binding significantly"}, {"measurement": "syncytia formation", "setting": "[6]", "value": "less syncytia formation"}, {"measurement": "reduction of fusion (nuclei per syncytia) relative to ethanol control", "setting": "[6]; 2 uM", "value": "~50", "unit": "%"}, {"measurement": "reduction of fusion (nuclei per syncytia) relative to ethanol control", "setting": "[6]; 10 uM", "value": "~60", "unit": "%"}, {"measurement": "LDH in supernatants of cells", "setting": "HEK293T", "value": "did not increase LDH"}, {"measurement": "LDH level", "setting": "HEK293T", "value": "increased"}, {"measurement": "IC50", "setting": "VSV-GFP [1]; Vesicular stomatitis virus, HEK-293T, read-out: IC50 of inhibition of VSV-GFP expression by FACs", "value": "~1", "unit": "µM"}, {"measurement": "inhibition of lateRT expression", "setting": "pseudotyped HIV-IIIB", "value": "> 99% and ~70%"}, {"measurement": "adenovirus coexpressing GFP measured by FACS", "setting": "adenovirus-GFP", "value": "not affected"}, {"measurement": "inhibition of luciferase expression from single round infection", "setting": "HIV-IIIB pseudovirus", "value": "> 50", "unit": "%"}, {"measurement": "reduction in the amount of VSV produced (viral genome copies by qRT-PCR)", "setting": "[7]", "value": "> 80", "unit": "%"}, {"measurement": "infectious titer of viruses from treated cells normalized for viral gRNA", "setting": "[7]; 2.5 uM", "value": "equivalent plaque forming units"}, {"measurement": "VSV-G mediated infection, addition concurrently or 1 hpi", "setting": "VSVΔG-Luc/G pseudovirus", "value": "not significantly inhibited"}, {"measurement": "inhibition of VSVΔG-Luc expression, pre-treatment", "setting": "VSVΔG-Luc/G pseudovirus", "value": "greater inhibition"}, {"measurement": "reduction of HIV RNA (copies/mL) in serum vs vehicle-treated mice", "setting": "HIV NL4-R3A; 50 mg/kg i.p. 12 h prior to infection and every day, 7 dpi, P<0.0001", "value": "> 80", "unit": "%"}, {"measurement": "HIV p24 in CD4 T-cells from spleens", "setting": "HIV NL4-R3A; 50 mg/kg i.p. daily, 14 dpi", "value": "significantly lower"}, {"measurement": "HIV-mediated CD4 T-cell depletion in peripheral blood leukocytes", "setting": "HIV NL4-R3A; 50 mg/kg i.p. daily, CD3+ T-cell population, P<0.05", "value": "prevented HIV-mediated CD4 T-cell depletion"}, {"measurement": "HIV-mediated CD4 T-cell depletion in the spleen", "setting": "HIV NL4-R3A; 50 mg/kg i.p. daily, P=0.06", "value": "less significant"}, {"measurement": "VSV-G/BlaM entry", "setting": "VSV-G/BlaM", "value": "dose-dependent inhibition"}, {"measurement": "replication of live Ebola (EBOV-Zaire)", "setting": "Ebola Zaire-GFP (EBOV)", "value": "inhibited replication"}, {"measurement": "decrease in NL4-3/Bla blue-green ratio at endpoint", "setting": "[8]", "value": "~60", "unit": "%"}, {"measurement": "reduction in cells expressing cleaved CCF2-AM by FACS", "setting": "[8]", "value": "> 85", "unit": "%"}, {"measurement": "inhibition of p24 expression compared to vehicle", "setting": "HIV NL4-3", "value": "~80", "unit": "%"}, {"measurement": "VSV replication", "setting": "VSV-GFP [9]", "value": "reduced VSV replication"}]}, {"smiles": "c1cc(CN2CCCNCCNCCCNCC2)ccc1CN1CCCNCCNCCCNCC1", "note": "[AMD3100, reference compound]", "values": [{"measurement": "NL4-3/Bla entry", "setting": "[8]", "value": "abrogated"}]}, {"smiles": "Cc1cn([C@H]2C[C@H](N=[N+]=[N-])[C@@H](CO)O2)c(=O)[nH]c1=O", "note": "[AZT, reference compound]", "values": [{"measurement": "inhibition of luciferase expression from single round infection", "setting": "HIV-IIIB pseudovirus", "value": "~70", "unit": "%"}]}, {"smiles": "CN(C)CCCN1c2ccccc2Sc2ccc(Cl)cc21", "note": "[CPZ, reference compound]", "values": [{"measurement": "VSV binding (VSV genomic RNA)", "setting": "VSV", "value": "did not inhibit binding significantly"}]}, {"smiles": "Cc1c(O)cccc1C(=O)N[C@@H](CSc1ccccc1)[C@H](O)CN1C[C@H]2CCCC[C@H]2C[C@H]1C(=O)NC(C)(C)C", "note": "[Nelfinavir, reference compound]", "values": [{"measurement": "inhibition of p24 expression in supernatants", "setting": "NL4-3-GFP", "value": "> 50", "unit": "%"}]}]}
